The assay addresses Thymidine kinase (Herpes simplex virus 1). Kind of assay: Binding affinity was determined against Herpes simplex virus (HSV) -1 thymidine kinase in vero cell monolayer culture.

Each structure is given as a SMILES string.

In turn, `Nc1nc2c(ncn2CC=C(CO)CO)c(=O)[nH]1` registered a Ki of 25 µM.

(Values after BindingDB's records for doi:10.1021/jm00388a036 (1987).)
